The target of test [1] is T1, full-length beta-Catenin (Uniprot ID P35222) (Homo sapiens, UniProt P35222).
T1 construct: 10 nM full-length beta-Catenin (Uniprot ID P35222)
T1 sequence (P35222 1-781): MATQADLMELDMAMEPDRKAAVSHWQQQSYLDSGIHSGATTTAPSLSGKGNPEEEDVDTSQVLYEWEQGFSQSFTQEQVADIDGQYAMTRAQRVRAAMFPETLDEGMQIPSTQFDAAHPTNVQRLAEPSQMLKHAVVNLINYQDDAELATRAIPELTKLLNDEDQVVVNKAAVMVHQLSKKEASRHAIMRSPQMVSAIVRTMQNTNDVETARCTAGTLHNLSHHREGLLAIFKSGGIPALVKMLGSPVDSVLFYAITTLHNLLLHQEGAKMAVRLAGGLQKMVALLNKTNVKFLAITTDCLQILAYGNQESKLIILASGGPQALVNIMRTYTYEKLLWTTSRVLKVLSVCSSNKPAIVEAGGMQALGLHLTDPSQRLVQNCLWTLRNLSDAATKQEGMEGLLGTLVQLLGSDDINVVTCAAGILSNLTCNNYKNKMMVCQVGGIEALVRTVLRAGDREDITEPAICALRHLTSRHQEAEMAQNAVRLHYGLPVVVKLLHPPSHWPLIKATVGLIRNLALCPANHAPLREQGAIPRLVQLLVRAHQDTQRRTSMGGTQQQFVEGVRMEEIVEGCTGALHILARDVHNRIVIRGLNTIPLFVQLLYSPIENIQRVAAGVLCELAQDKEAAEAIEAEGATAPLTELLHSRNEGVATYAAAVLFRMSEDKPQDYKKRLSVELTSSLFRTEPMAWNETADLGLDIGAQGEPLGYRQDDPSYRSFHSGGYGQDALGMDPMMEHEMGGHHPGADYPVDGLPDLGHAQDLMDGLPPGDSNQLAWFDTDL
The test is described as follows: Fluorescence polarization IC50 (beta-catenin / 5FAM-TCF4 10-53 competition). In kind it is binding. The note with it: fluorescence polarization; read-out: beta-Catenin FP IC50. Background: Polarisation of emitted light reports the rotation of a fluorescent probe.

Test [2] addresses T2, beta-catenin/TCF4 engagement (Homo sapiens, UniProt P35222).
T2 construct: expressed in transfected cells; host or cells: HEK293
T2 sequence (P35222 1-781): T1 sequence (P35222 1-781)
The experiment in a line: Nano-BRET target engagement assay (B-cat-Halo & TCF4-Luc in HEK293 cells). To be noted: absolute IC50; read-out: NanoBRET Abs IC50. The test is classed as cell-based. Background: BRET reads energy transfer from a luciferase to a nearby fluorophore.

For 13 compounds, IC50 results are on record in patent US20240116985A1, “STAPLED PEPTIDES AND METHODS THEREOF” (priority 2020, published 2024).

For the compound `CC(=O)N1CCC[C@]12CCCCCCC1(CCCCCCCCOC(=O)N3CC[C@@](C(=O)N[C@@H](Cc4ccsc4)C(=O)N[C@@H](Cc4csc5ccccc45)C(=O)N[C@@H](Cc4ccccc4)C(N)=O)(C3)NC(=O)[C@H]([C@@H](C)O)NC(=O)[C@H](Cc3ccccc3)NC(=O)[C@H](C)NC(=O)[C@H](CCCCNC(C)C)NC(=O)[C@H](CN(CC(=O)O)CC(F)(F)F)NC(=O)[C@H](CC(=O)O)NC1=O)NC(=O)[C@H](CC(C)(C)C)NC(=O)[C@H](CC(=O)O)NC2=O` (stereo partly drawn) [I-1768, Ac-PL3-Asp-Npg-B5-Asp-TfeGA-iPrLys-Ala-Phe-Thr-PyrS2-3Thi-BztA-Phe-NH2], the results for the IC50 in test [1] and in test [2] were 69 nM and more than 20000 nM, respectively.
Taken in the same sequence, the figures for `CC(=O)N1CCC[C@]12CCCCCCC1(CCCCCCCCOC(=O)N3CC[C@@](C(=O)N[C@@H](Cc4ccsc4)C(=O)N[C@@H](Cc4csc5ccccc45)C(=O)N[C@H](C(N)=O)C(C)C)(C3)NC(=O)[C@H]([C@@H](C)O)NC(=O)[C@H](Cc3ccccc3)NC(=O)[C@H](C)NC(=O)[C@H](CCCCNC(C)C)NC(=O)[C@H](CN(CC(=O)O)CC(F)(F)F)NC(=O)[C@H](CC(=O)O)NC1=O)NC(=O)[C@H](CC(C)(C)C)NC(=O)[C@H](CC(=O)O)NC2=O` (stereo partly drawn) [I-1770, Ac-PL3-Asp-Npg-B5-Asp-TfeGA-iPrLys-Ala-Phe-Thr-PyrS2-3Thi-BztA-Val-NH2] were 175 nM and more than 20000 nM.
On the same counts, the results for `CC(=O)N1CCC[C@]12CC=CCCCC1(CCCC=CCCCOC(=O)N3CC[C@@](C(=O)N[C@@H](Cc4ccsc4)C(=O)N[C@@H](Cc4csc5ccccc45)C(=O)N[C@@H](CCC(N)=O)C(N)=O)(C3)NC(=O)[C@H](CC(C)C)NC(=O)[C@H](Cc3ccccc3)NC(=O)[C@H](C)NC(=O)[C@H](C)NC(=O)[C@H](CN(CC(=O)O)CC(F)(F)F)NC(=O)[C@H](CC(=O)O)NC1=O)NC(=O)[C@H](CCC(C)(C)C)NC(=O)[C@H](CC(=O)O)NC2=O` (stereo partly drawn) [I-1772, Ac-PL3-Asp-Npa-B5-Asp-TfeGA-Ala-Ala-Phe-Leu-PyrS2-3Thi-BztA-Gln-NH2] are 14 nM and 6800 nM.
Taken in the same sequence, the figures for `CC(=O)N1CCC[C@]12CC=CCCCC1(CCCC=CCCCOC(=O)N3CC[C@@](C(=O)N[C@@H](Cc4ccsc4)C(=O)N[C@@H](Cc4csc5ccccc45)C(=O)N[C@@H](CCC(N)=O)C(N)=O)(C3)NC(=O)[C@H](CC(C)(C)C)NC(=O)[C@H](Cc3ccccc3)NC(=O)[C@H](C)NC(=O)[C@H](C)NC(=O)[C@H](CN(CC(=O)O)CC(F)(F)F)NC(=O)[C@H](CC(=O)O)NC1=O)NC(=O)[C@H](CC(C)(C)C)NC(=O)[C@H](CC(=O)O)NC2=O` (stereo partly drawn) [I-1773, Ac-PL3-Asp-Npg-B5-Asp-TfeGA-Ala-Ala-Phe-Npg-PyrS2-3Thi-BztA-Gln-NH2] were 32 nM and 8600 nM.
As for `CC(=O)N1CCC[C@]12CC=CCCCC1(CCCC=CCCCOC(=O)N3CC[C@@](C(=O)N[C@@H](Cc4ccsc4)C(=O)N[C@@H](Cc4csc5ccccc45)C(=O)N[C@@H](CCC(N)=O)C(N)=O)(C3)NC(=O)[C@H](CC3CCCCC3)NC(=O)[C@H](Cc3ccccc3)NC(=O)[C@H](C)NC(=O)[C@H](C)NC(=O)[C@H](CN(CC(=O)O)CC(F)(F)F)NC(=O)[C@H](CC(=O)O)NC1=O)NC(=O)[C@H](CC(C)(C)C)NC(=O)[C@H](CC(=O)O)NC2=O` (stereo partly drawn) [I-1774, Ac-PL3-Asp-Npg-B5-Asp-TfeGA-Ala-Ala-Phe-Cha-PyrS2-3Thi-BztA-Gln-NH2], the half-inhibitory concentration (IC50) – broadly, the midpoint of a concentration-inhibition curve – in test [1] amounted to 28 nM; in test [2] it was 8900 nM.
Taken in the same sequence, the figures for `CCCC[C@@H]1NC(=O)[C@H](Cc2ccccc2)NC(=O)[C@H](C)NC(=O)[C@H](C)NC(=O)[C@H](CN(CC(=O)O)CC(F)(F)F)NC(=O)[C@H](CC(=O)O)NC(=O)C2(CCCC=CCCCOC(=O)N3CC[C@@](C(=O)N[C@@H](Cc4ccsc4)C(=O)N[C@@H](Cc4csc5ccccc45)C(=O)N[C@@H](CCC(N)=O)C(N)=O)(C3)NC1=O)CCCC=CC[C@]1(CCCN1C(C)=O)C(=O)N[C@@H](CC(=O)O)C(=O)N[C@@H](CC(C)(C)C)C(=O)N2` (stereo partly drawn) [I-1776, Ac-PL3-Asp-Npg-B5-Asp-TfeGA-Ala-Ala-Phe-nLeu-PyrS2-3Thi-BztA-Gln-NH2] were 17 nM and 10500 nM.
Taken in the same sequence, the figures for `CCCC[C@@H]1NC(=O)[C@H](CC(=O)O)NC(=O)[C@]2(CC=CCCCC3(CCCC=CCCCOC(=O)N4CC[C@@](C(=O)N[C@@H](Cc5ccsc5)C(=O)N[C@@H](Cc5csc6ccccc56)C(=O)N[C@@H](CCC(N)=O)C(N)=O)(C4)NC(=O)[C@H](CC(C)C)NC(=O)[C@H](Cc4ccccc4)NC(=O)[C@H](C)NC(=O)[C@H](C)NC(=O)[C@H](CN(CC(=O)O)CC(F)(F)F)NC(=O)[C@H](CC(=O)O)NC3=O)NC1=O)CCCN2C(C)=O` (stereo partly drawn) [I-1777, Ac-PL3-Asp-nLeu-B5-Asp-TfeGA-Ala-Ala-Phe-Leu-PyrS2-3Thi-BztA-Gln-NH2] were 8 nM and 8700 nM.
Consider `CC(=O)N1CCC[C@]12CC=CCCCC1(CCCC=CCCCOC(=O)N3CC[C@@](C(=O)N[C@@H](Cc4ccsc4)C(=O)N[C@@H](Cc4csc5ccccc45)C(=O)N[C@@H](CCC(N)=O)C(N)=O)(C3)NC(=O)[C@H](CCO)NC(=O)[C@H](Cc3ccccc3)NC(=O)[C@H](C)NC(=O)[C@H](C)NC(=O)[C@H](Cc3ccc(O)cc3)NC(=O)[C@H](CC(=O)O)NC1=O)NC(=O)[C@H](CC(C)(C)C)NC(=O)[C@H](CC(=O)O)NC2=O` (stereo partly drawn) [I-1783, Ac-PL3-Asp-Npg-B5-Asp-Tyr-Ala-Ala-Phe-Hse-PyrS2-3Thi-BztA-Gln-NH2], for which the half-maximal inhibitory concentration (IC50) in test [1] is 101 nM; in test [2], more than 20000 nM.
On the same counts, the results for `CC(=O)N1CCC[C@]12CC=CCCCC1(CCCC=CCCCOC(=O)N3CC[C@@](C(=O)N[C@@H](Cc4ccsc4)C(=O)N[C@@H](Cc4csc5ccccc45)C(=O)N[C@@H](CCC(N)=O)C(N)=O)(C3)NC(=O)[C@H](CCO)NC(=O)[C@H](Cc3ccccc3)NC(=O)[C@H](C)NC(=O)[C@H](C)NC(=O)[C@H](CCc3ccc(O)cc3)NC(=O)[C@H](CC(=O)O)NC1=O)NC(=O)[C@H](CC(C)(C)C)NC(=O)[C@H](CC(=O)O)NC2=O` (stereo partly drawn) [I-1786, Ac-PL3-Asp-Npg-B5-Asp-hTyr-Ala-Ala-Phe-Hse-PyrS2-3Thi-BztA-Gln-NH2] are 42 nM and more than 20000 nM.
On the same counts, the results for `CC(=O)N1CCC[C@]12CC=CCCCC1(CCCC=CCCCOC(=O)N3CC[C@@](C(=O)N[C@@H](Cc4ccsc4)C(=O)N[C@@H](Cc4csc5ccccc45)C(=O)N[C@@H](CCC(N)=O)C(N)=O)(C3)NC(=O)[C@H](CC(N)=O)NC(=O)[C@H](Cc3ccccc3)NC(=O)[C@H](C)NC(=O)[C@H](C)NC(=O)[C@H](Cc3c[nH]c4ccccc34)NC(=O)[C@H](CC(=O)O)NC1=O)NC(=O)[C@H](CC(C)(C)C)NC(=O)[C@H](CC(=O)O)NC2=O` (stereo partly drawn) [I-1788, Ac-PL3-Asp-Npg-B5-Asp-Trp-Ala-Ala-Phe-Asn-PyrS2-3Thi-BztA-Gln-NH2] are 58 nM and 33900 nM.
Taken in the same sequence, the figures for `CC(=O)N1CCC[C@]12CC=CCCCC1(CCCC=CCCCOC(=O)N3CC[C@@](C(=O)N[C@@H](Cc4ccsc4)C(=O)N[C@@H](Cc4csc5ccccc45)C(=O)N[C@@H](CCC(N)=O)C(N)=O)(C3)NC(=O)[C@H](CC(N)=O)NC(=O)[C@H](Cc3ccccc3)NC(=O)[C@H](C)NC(=O)[C@H](C)NC(=O)[C@H](Cc3c(F)c(F)c(F)c(F)c3F)NC(=O)[C@H](CC(=O)O)NC1=O)NC(=O)[C@H](CC(C)(C)C)NC(=O)[C@H](CC(=O)O)NC2=O` (stereo partly drawn) [I-1790, Ac-PL3-Asp-Npg-B5-Asp-Pff-Ala-Ala-Phe-Asn-PyrS2-3Thi-BztA-Gln-NH2] were 82 nM and 34400 nM.
Consider `CC(=O)N1CCC[C@]12CC=CCCCC1(CCCC=CCCCOC(=O)N3CC[C@@](C(=O)N[C@@H](Cc4ccsc4)C(=O)N[C@@H](Cc4csc5ccccc45)C(=O)N[C@@H](CCC(N)=O)C(N)=O)(C3)NC(=O)[C@H](CCO)NC(=O)[C@H](Cc3ccccc3)NC(=O)[C@H](C)NC(=O)[C@H](C)NC(=O)[C@H](Cc3c(F)c(F)c(F)c(F)c3F)NC(=O)[C@H](CC(=O)O)NC1=O)NC(=O)[C@H](CC(C)(C)C)NC(=O)[C@H](CC(=O)O)NC2=O` (stereo partly drawn) [I-1791, Ac-PL3-Asp-Npg-B5-Asp-Pff-Ala-Ala-Phe-Hse-PyrS2-3Thi-BztA-Gln-NH2], for which the IC50 in test [1] was 182 nM; in test [2] it was more than 20000 nM.
Taken in the same sequence, the figures for `CC(=O)N1CCC[C@]12CC=CCCCC1(CCCC=CCCCOC(=O)N3CC[C@@](C(=O)N[C@@H](Cc4ccsc4)C(=O)N[C@@H](Cc4csc5ccccc45)C(=O)N[C@@H](CCC(N)=O)C(N)=O)(C3)NC(=O)[C@H](CCO)NC(=O)[C@H](Cc3ccccc3)NC(=O)[C@H](C)NC(=O)[C@H](C)NC(=O)[C@H](Cc3c[nH]cn3)NC(=O)[C@H](CC(=O)O)NC1=O)NC(=O)[C@H](CC(C)(C)C)NC(=O)[C@H](CC(=O)O)NC2=O` (stereo partly drawn) [I-1793, Ac-PL3-Asp-Npg-B5-Asp-His-Ala-Ala-Phe-Hse-PyrS2-3Thi-BztA-Gln-NH2] were 20 nM and more than 20000 nM.
